Structure (SMILES) | melting point [°C]
Oc1cc2c(cc1O)OCC(c1ccc3c(c1)OCO3)C2 (stereo unspecified) | 163 to 164
Cc1cnc2c(c1)CCCC2=NO | 188
N=C(Nc1ccccc1CN1CCOCC1)N1CCOCC1 | 118 to 119
C=CCN(C)S(=O)(=O)CC(=O)C=C(C)N | 86 to 89
CN1CCN(C=Nc2ccc3nnc(-c4ccc([N+](=O)[O-])o4)n3n2)CC1 | 247 to 248
CC1CC(c2ncc3nccc-3[nH]2)C(C)C(c2ccccc2)N1 (stereo unspecified) | 131 to 132
Cc1ccc(S(=O)c2nc(Cl)c([N+](=O)[O-])s2)cc1 (stereo unspecified) | 112
COCc1ncc(OC)c(=O)[nH]1 | 61
CC(C)(C)c1cc(CCc2ccccc2NC(=O)NC2CCCCC2)cc(C(C)(C)C)c1O | 198 to 200
CC(C)OC(=O)NNc1n[nH]c2cc(Cl)ccc12 | 184 to 185
CCOC(=O)C1CCCN(CCC2CCc3cc(OCc4ccc(-c5ccccc5)cc4)ccc3C2)C1 (stereo unspecified) | 97 to 98
COCCOc1ccc(CCCOC(=O)NS(=O)(=O)NC2CCC(C)CC2)c(Oc2ncc(C(F)(F)F)cc2Cl)c1 (stereo unspecified) | 122
COc1ccccc1C(=O)c1cccc(NC(=O)c2ccn3c2CSC3c2cccnc2)c1 (stereo unspecified) | 184
O=c1c2c(c3cccnc3n1-c1ccccc1)CCCC2 | 160 to 162
N#Cc1ccccc1CN1CCSC1=O | 116 to 117
O=C(C=Cc1ccc(Oc2ccccc2)cc1)c1ccc(C2CCCCC2)cc1 | 161
N#Cc1cccc(CN2CCc3ccc(C(=O)CCCC4CCN(Cc5ccccc5Cl)CC4)cc3CC2)c1 | 121 to 122
CCCCc1nc2cccc(C(=O)O)c2n1Cc1ccc(-n2cccc2-c2nnn[nH]2)cc1 | 165 to 167
COc1cc2c(c(OC)c1OC)-c1ccc(OC(=O)N3CCC(N4CCCCC4)CC3)cc1C(NC(C)=O)CC2 (stereo unspecified) | 168 to 175
CCOC(=O)NC(=S)Nc1ccc(C(=O)OC(C)(C)C)cc1 | 119 to 120
CCCNC(=O)C(O)C1c2ccccc2C(=O)N1c1ccc2ccc(Br)nc2n1 (stereo unspecified) | 174
CC(CCNCCOc1cccc2[nH]ccc12)c1c[nH]c2ccccc12 (stereo unspecified) | 70 to 73
O=C(O)C(c1ccc([N+](=O)[O-])cc1)N1CCCC1 (stereo unspecified) | 103 to 105
CCCCc1nc2c(N)nc3ccccc3c2n1CCNC(=S)Nc1ccc(-c2c3ccc(=O)cc-3oc3cc(O)ccc23)c(C(=O)O)c1 | > 245
CCCCc1ncc(CC(=O)NC(CCc2ccccc2)C(=O)O)n1Cc1ccccc1Cl (racemic) | 119 to 120
Oc1cc2c(cc1O)-c1ccccc1C2 | 155 to 156

Structure (SMILES) | melting point [°C]
CCc1ccc2nnc(C(=O)Oc3ccccc3)cc2c1 | 143 to 145
COC(=O)Cc1cc(NC(=O)OC(C)(C)C)c(N)cc1C#Cc1ccccc1 | 130
CC(C#Cc1ccc2c(c1)CCN(Cc1ccc(-c3ccc(F)cc3)cn1)C2=O)N(O)C(N)=O (stereo unspecified) | 118 to 120
O=[N+]([O-])c1cccc2nc3c(nc12)N1CCCCC1CO3 (stereo unspecified) | 182 to 184
COc1ccc(C=O)cc1-n1nnnc1C | 157
CC(C)(C)C(Cl)=C(C#N)C#N | 52 to 53
COc1ccc(S(=O)(=O)NCc2ccco2)c2cc(C(C)=O)oc12 | 182 to 184
O=C1CCCC(c2ccc(Cl)cc2)N1c1ccc(O)cc1 (stereo unspecified) | 209 to 210
N#Cc1ccc(NC(=O)CCc2ccc(O)cc2)cc1 | 169 to 172
CC(C)(C)OC(=O)CCC1(C(=O)O)CCCC1 | 78 to 81
COc1ccc(Oc2nnn[nH]2)cc1 | 150
COc1ccc2c(C=O)c(OCc3ccccc3)ccc2c1C(F)(F)F | 143 to 145
CCN(c1c(-c2ccccc2)[nH]c(C)c1C(=O)c1ccccc1)S(=O)(=O)c1ccc(C)cc1 | 224 to 225
O=C(O)c1ccc2c(c1)C(c1ccccc1Cl)=NC=C1N=NC(C3CC3)N12 (stereo unspecified) | 170 to 175
CCCCCCOc1ccc(-n2cc(C(=O)O)cn2)cc1C#N | 164 to 165
O=S(=O)(NCCc1ccncc1)c1ccc(Br)s1 | 133 to 134
CCCC1=C(C#N)C(c2ccccc2Cl)c2c(n[nH]c2C)N1 (stereo unspecified) | 260
CC(=O)Nc1ccc(Cl)cc1C(=O)c1c(F)cccc1F | 106 to 116
CC1(C)NC(=O)N(Cc2ccccc2)C1=O | 101 to 104
Cc1c(SCc2ccco2)ccnc1CSc1ccncc1 | 126 to 128
C=CCN1C2CCC1C1CCC2N1C(c1ccc(C(=O)N2CCCC2)cc1)c1cccc(OC)c1 (stereo unspecified) | 46 to 48
CCOc1cc(C(C)C)ccc1C1CCN(CCCCNC(=O)c2ccc(NC(=O)c3ccc(Cl)cc3)cc2)CC1 | 242
CCOC(=O)C1=C[C@@H](OC(CC)CC)[C@H](NC(C)=O)[C@@H](N=[N+]=[N-])C1 | 115 to 117
O=C1CCC(N2Cc3c(OCc4ccc(CNC5CCOCC5)cc4)cccc3C2=O)C(=O)N1 (stereo unspecified) | 231 to 233
CC(C)c1cccc(C(C)C)c1NC(=O)c1ccccc1N | 207 to 209
CC=CCSc1cc(C(=O)O)cc(S(N)(=O)=O)c1-c1ccccc1 | 89 to 91

Structure (SMILES) | melting point [°C]
CCCN1C(=O)C2(CC(C)C)CC(c3ccc(N)cc3)(C2)C1=O | 86.5 to 87
CC(=O)OC/C=C(\C)CCc1c(C)c(O)c(C)c(C)c1O | 94.5 to 96
O=C1N=NC(c2nc(Cl)c(Cl)[nH]2)=N1 | 176 to 178
CC(=O)OCCOCn1c(=O)sc2c(=O)[nH]c(N)nc21 | 173 to 176
CC(=C1SC(=O)NC1=O)c1ccc(OCCOc2c(-c3ccc(F)cc3)n(C)c3ccccc3c2=O)cc1 | 228 to 230
CN(C)CCC1CN(C)C(=S)c2cc([N+](=O)[O-])ccc2O1 (stereo unspecified) | 104 to 109
CC(=O)Nc1cccc(C=C2C(=O)c3ccccc3OC2c2ccccc2)c1 (stereo unspecified) | 172 to 173
CC(C)(C)OC(=O)NC(CC(=O)ON1C(=O)CCC1=O)c1ccc(-c2ccccc2)cc1 (stereo unspecified) | 161
CCc1c(CNc2ccc3ccc(C)nc3n2)c(CC)c(CNc2ccc3ccc(C)nc3n2)c(CC)c1CNc1ccc2ccc(C)nc2n1 | 207 to 208
C=CCNC(=O)N(N(CCCl)S(C)(=O)=O)S(C)(=O)=O | 105 to 106
Cc1cc(C)nc(COc2ccc3c(c2)c(SC(C)(C)C)c(CC(C)(C)C(=O)O)n3Cc2ccc(Cl)cc2)n1 | 213 to 215
COc1ccc(-c2nc(-c3ccccc3Cl)sc2-c2ccc(S(C)(=O)=O)cc2)cc1 | 172 to 174
CCOC(=O)CC(=O)Nc1cc(F)cc(F)c1 | 42 to 45
COc1ccc2cc(C(=O)CCCCC(=O)N(C)O)ccc2c1 | 116 to 118
CO/C=C(/C(=O)OC)c1ccccc1CCl | 85 to 88
CCOP(=O)(OCC)c1sc2ccccc2c1P(=O)(OCC)OCC | 67
CSC1C(=O)Nc2cc(-c3ccccc3)ccc21 (stereo unspecified) | 177 to 178
Cc1cc2c(s1)S(=O)(=O)N(C)C(=O)C2C(=O)Nc1ccccc1 (stereo unspecified) | 184 to 185
COc1ccc(C(=O)Nc2ccc3ccc(OCC(=O)N(C)C)nc3n2)cc1 | 165
N#Cc1cc2ccc(OCC3CO3)cc2o1 (stereo unspecified) | 90 to 92
CCOC(=O)Nc1ccc2nc(OCC)oc(=O)c2c1 | 191 to 193
COc1ccc([C@@H]2C[C@H]2NC(=O)N(C)O)cc1OC (relative stereo) | 142 to 144
CNC(=O)c1cc(C)c(C(c2cc(F)ccc2F)S(=O)(=O)c2ccc(Cl)cc2)cn1 (stereo unspecified) | 200 to 201
S=C1CC(c2ccccc2)=Nc2ccccc2N1 | 228 to 230
CCOC(=O)CNC(=O)Nc1c(-c2ccccc2OC)c2ccccc2c(=O)n1C | 128 to 130
CC(C)(C)OC(=O)N[C@H](CC(=O)OCc1ccccc1)C(=O)N[C@H](CO)Cc1ccccc1 | 94 to 95

Structure (SMILES) | melting point [°C]
Fc1ccccc1C1=NCc2cnc(Cl)nc2-c2ccc(Cl)cc21 | 157 to 160
CSCC(C)(C)NC(=O)c1c(I)cccc1C(=O)Nc1ccc(Cn2nc(C(F)(F)F)cc2C(F)(F)F)cc1C | 83 to 87
CN(C)C1(c2ccccc2)CCC(CNC(=O)NCCc2c[nH]c3ccccc23)CC1 (stereo unspecified) | 159 to 163
O=CNC1=NN(c2ccc(Cl)cc2)C(c2ccccc2)C1 (stereo unspecified) | 164 to 166
O=C(CCl)Oc1ccccc1CCC1SCCN1C(=O)CCl (stereo unspecified) | 88 to 89
COC(=O)c1cc(F)ccc1Nc1ccnc2c(Cl)cccc12 | 196
Cc1cc(C2(C(F)(F)F)CC(n3cncn3)=NO2)ccc1NC(=O)OC(C)(C)C (stereo unspecified) | 46 to 48
Oc1ccc(Oc2ccc3ccccc3n2)cc1 | 177
Cc1ccc(SN(C)C=Nc2ccc(Cl)cc2C)cc1 | 49 to 50.5
COC(=O)c1cncn1C1c2ccsc2CC1(C)C (stereo unspecified) | 62 to 63
O=C(O)CCCCCCC(=NOCc1ccc(OCc2noc(-c3ccccc3)n2)cc1)c1ccccc1 | 76 to 77
ON=Cc1ccc(-c2ccc(O)cc2)c(Cl)c1Cl | 208 to 210
Cc1nc(Cc2ccc(NC(=O)/C=C/c3cnn(C)c3-c3ccc(F)cc3)cc2)cs1 | 192 to 193
Nc1nnc(-c2ccc(CN3CCCCCC3)s2)s1 | 156 to 157
CNC(=O)Nc1cccc(C(=S)NC(C)C)c1 | 175 to 178
CC1=C(C2C=CN(C(=O)OCC(Cl)(Cl)Cl)C=C2)SCC(=O)N1 | 158 to 160
CCCSCc1cccc(-c2nc(=O)c3ccccc3s2)n1 | 112 to 113
Clc1ccc(Cl)c(CN2CCNc3ncc(-c4ccc(Cl)nc4)cc32)c1 | 205
CC(=O)OCC(=O)N1C(C(N)=O)Cc2c([nH]c3ccccc23)C1c1ccccc1 (stereo unspecified) | 195 to 197
O=c1oc2c(c(O)c1C(c1ccccc1)C1CC1)CCCCC2CCC1OCCO1 (stereo unspecified) | 68 to 76
COC1CN(CCCNc2ncccn2)CCC1NC(=O)C1=CC(Cl)(OC)C(N)C=C1 (stereo unspecified) | 158
N=C(Nc1cccc(NC(=O)/C=C/c2ccccc2Cl)c1)c1ccccc1 | 262 to 264
NCc1ccc2[nH]ccc2c1 | 114 to 115

— a melting point compilation (Tetko et al.; mined from patent text by program, amines drawn as free bases though some values may be those of a salt)
